Results published in US20100267561A1, “HERBICIDAL PYRIDAZINONE DERIVATIVES” (priority 2007, published 2010).

Assays:
Assay in all cases: Test B pre-/postemergence plant response
Assay type in all cases: in vivo
[1] = test system: morningglory (Ipomoea coccinea); details: for Morningglory plant response rating: 8 g ai/ha
Method in brief: (§1)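 Seeds were sown and sprayed preemergence, while plants at 2 to 18 cm (1- to 4-leaf stage) got postemergence sprays. Compounds were formulated in a non-phytotoxic solvent mixture with surfactant. After 13 to 15 days in a greenhouse, injury was rated visually against untreated controls, 0 (no effect) to 100 (complete control).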

[2] = test system: eastern black (E.B.) nightshade (Solanum ptycanthum); details: Preemergence
Method in brief: as §1

[3] = test system: giant foxtail (Setaria faberii); details: for Foxtail, Giant plant response rating: 8 g ai/ha
Method in brief: as §1

[4] = test system: johnsongrass (Sorghum halepense); details: for Johnsongrass plant response rating: 8 g ai/ha
Method in brief: as §1

wild oat (Avena fatua) = details: for Oat, Wild plant response rating: 8 g ai/ha
Method in brief: as §1

kochia (Kochia scoparia) = details: for Kochia plant response rating: 8 g ai/ha
Method in brief: as §1

[5] = test system: bermudagrass (Cynodon dactylon); details: for Bermudagrass plant response rating: 8 g ai/ha
Method in brief: as §1

[6] = test system: blackgrass (Alopecurus myosuroides); details: for Blackgrass plant response rating: 8 g ai/ha
Method in brief: as §1

[7] = test system: surinam grass (Brachiaria decumbens); details: for Surinam Grass plant response rating: 8 g ai/ha
Method in brief: as §1

corn (Zea mays) = details: for Corn plant response rating: 8 g ai/ha
Method in brief: as §1

[8] = test system: common ragweed (Ambrosia elation); details: for Ragweed plant response rating: 8 g ai/ha
Method in brief: as §1

[9] = test system: yellow nutsedge (Cyperus esculentus); details: for Nutsedge, Yellow plant response rating: 8 g ai/ha
Method in brief: as §1

[10] = test system: lambsquarters (Chenopodium album); details: for Lambsquarters plant response rating: 8 g ai/ha
Method in brief: as §1

[11] = test system: Italian ryegrass (Lolium multiflorum); details: for Ryegrass, Italian plant response rating: 8 g ai/ha
Method in brief: as §1

[12] = Postemergence, 16 g ai/ha, scale 0 to 100
[13] = Postemergence, 31 g ai/ha, scale 0 to 100, 0 no effect, 100 complete control
[14] = Postemergence, 62 g ai/ha, scale 0 to 100, 0 no effect, 100 complete control
[15] = Preemergence, 16 g ai/ha, scale 0 to 100 (0 no effect, 100 complete control)
[16] = Preemergence, 31 g ai/ha, 0 to 100 scale, 0 no effect, 100 complete control
[17] = Preemergence, 62 g ai/ha, scale 0 to 100

Cc1cc(-c2ccc(Cl)cc2)nn1-c1c(OC(=O)c2ccccc2Cl)cnn(C)c1=O [Compound 38]
Morningglory plant response rating ([1]; postemergence, 0-100 scale): 0 | Plant response rating, Morningglory [1, 12]: 0 | Plant response rating, Morningglory [1, 13]: 0 | Plant response rating, Morningglory [1, 14]: 0 | Plant response rating, Morningglory [1, 15]: 0 | Plant response rating, Morningglory [1, 16]: 0 | Plant response rating, Morningglory [1, 17]: 0 | Morningglory plant response rating ([1]; Preemergence, scale 0 to 100): 0 | Plant response rating, Nightshade, E. B. ([2]; 16 g ai/ha, scale 0 to 100 (0 no effect, 100 complete control)): 0 | Plant response rating, Nightshade, E. B. ([2]; 31 g ai/ha, 0 to 100 scale, 0 no effect, 100 complete control): 0 | Plant response rating, Nightshade, E. B. ([2]; 62 g ai/ha, scale 0 to 100): 0 | Nightshade, E. B. plant response rating ([2]; 8 g ai/ha, scale 0 to 100): 0 | Foxtail, Giant plant response rating ([3]; postemergence, 0-100 scale): 0 | Plant response rating, Foxtail, Giant [3, 12]: 20 | Plant response rating, Foxtail, Giant [3, 13]: 50 | Plant response rating, Foxtail, Giant [3, 14]: 100 | Plant response rating, Foxtail, Giant [3, 15]: 98 | Plant response rating, Foxtail, Giant [3, 16]: 100 | Plant response rating, Foxtail, Giant [3, 17]: 100 | Foxtail, Giant plant response rating ([3]; Preemergence, scale 0 to 100): 45 | Johnsongrass plant response rating ([4]; postemergence, 0-100 scale): 60 | Plant response rating, Johnsongrass [4, 12]: 65 | Plant response rating, Johnsongrass [4, 13]: 90 | Plant response rating, Johnsongrass [4, 14]: 100 | Plant response rating, Johnsongrass [4, 16]: 70 | Plant response rating, Johnsongrass [4, 17]: 80 | Johnsongrass plant response rating ([4]; Preemergence, scale 0 to 100): 0 | Oat, Wild plant response rating (wild oat (Avena fatua); postemergence, 0-100 scale): 80 | Plant response rating, Oat, Wild (wild oat (Avena fatua); [12]): 90 | Plant response rating, Oat, Wild (wild oat (Avena fatua); [13]): 95 | Plant response rating, Oat, Wild (wild oat (Avena fatua); [14]): 100 | Plant response rating, Oat, Wild (wild oat (Avena fatua); [15]): 60 | Plant response rating, Oat, Wild (wild oat (Avena fatua); [16]): 85 | Plant response rating, Oat, Wild (wild oat (Avena fatua); [17]): 90 | Oat, Wild plant response rating (wild oat (Avena fatua); Preemergence, scale 0 to 100): 0 | Kochia plant response rating (kochia (Kochia scoparia); postemergence, 0-100 scale): 0 | Plant response rating, Kochia (kochia (Kochia scoparia); [12]): 0 | Plant response rating, Kochia (kochia (Kochia scoparia); [13]): 0 | Plant response rating, Kochia (kochia (Kochia scoparia); [14]): 0 | Plant response rating, Kochia (kochia (Kochia scoparia); [15]): 0 | Kochia plant response rating (kochia (Kochia scoparia); Preemergence, scale 0 to 100): 0 | Bermudagrass plant response rating ([5]; postemergence, 0-100 scale): 40 | Plant response rating, Bermudagrass [5, 12]: 85 | Plant response rating, Bermudagrass [5, 13]: 100 | Plant response rating, Bermudagrass [5, 14]: 100 | Bermudagrass plant response rating ([5]; Preemergence, scale 0 to 100 (0 no effect, 100 complete control)): 60 | Plant response rating, Bermudagrass [5, 15]: 100 | Plant response rating, Bermudagrass [5, 16]: 100 | Plant response rating, Bermudagrass [5, 17]: 100 | Blackgrass plant response rating ([6]; postemergence, 0-100 scale): 0 | Plant response rating, Blackgrass [6, 12]: 40 | Plant response rating, Blackgrass [6, 13]: 80 | Plant response rating, Blackgrass [6, 14]: 98 | Plant response rating, Blackgrass [6, 16]: 90 | Plant response rating, Blackgrass [6, 17]: 100 | Blackgrass plant response rating ([6]; Preemergence, scale 0 to 100): 90 | Surinam Grass plant response rating ([7]; postemergence, 0-100 scale): 90 | Plant response rating, Surinam Grass [7, 12]: 90 | Plant response rating, Surinam Grass [7, 14]: 100 | Plant response rating, Surinam Grass [7, 15]: 90 | Plant response rating, Surinam Grass [7, 16]: 100 | Plant response rating, Surinam Grass [7, 17]: 100 | Surinam Grass plant response rating ([7]; Preemergence, scale 0 to 100): 90 | Corn plant response rating (corn (Zea mays); postemergence, 0-100 scale): 90 | Plant response rating, Corn (corn (Zea mays); [12]): 95 | Plant response rating, Corn (corn (Zea mays); [13]): 100 | Plant response rating, Corn (corn (Zea mays); [14]): 100 | Plant response rating, Corn (corn (Zea mays); [15]): 50 | Plant response rating, Corn (corn (Zea mays); [16]): 75 | Plant response rating, Corn (corn (Zea mays); [17]): 95 | Corn plant response rating (corn (Zea mays); Preemergence, scale 0 to 100): 45 | Ragweed plant response rating ([8]; postemergence, 0-100 scale): 0 | Plant response rating, Ragweed [8, 12]: 0 | Plant response rating, Ragweed [8, 13]: 0 | Plant response rating, Ragweed [8, 14]: 0 | Plant response rating, Ragweed [8, 15]: 0 | Plant response rating, Ragweed [8, 16]: 0 | Plant response rating, Ragweed [8, 17]: 0 | Ragweed plant response rating ([8]; Preemergence, scale 0 to 100): 0 | Nutsedge, Yellow plant response rating ([9]; postemergence, 0-100 scale): 0 | Plant response rating, Nutsedge, Yellow [9, 12]: 0 | Plant response rating, Nutsedge, Yellow [9, 13]: 0 | Plant response rating, Nutsedge, Yellow [9, 14]: 0 | Plant response rating, Nutsedge, Yellow [9, 15]: 0 | Plant response rating, Nutsedge, Yellow [9, 16]: 0 | Plant response rating, Nutsedge, Yellow [9, 17]: 0 | Nutsedge, Yellow plant response rating ([9]; Preemergence, scale 0 to 100): 0 | Lambsquarters plant response rating ([10]; postemergence, 0-100 scale): 0 | Plant response rating, Lambsquarters [10, 12]: 0 | Plant response rating, Lambsquarters [10, 13]: 0 | Plant response rating, Lambsquarters [10, 14]: 0 | Plant response rating, Lambsquarters [10, 15]: 0 | Plant response rating, Lambsquarters [10, 16]: 0 | Plant response rating, Lambsquarters [10, 17]: 0 | Lambsquarters plant response rating ([10]; Preemergence, scale 0 to 100): 0 | Ryegrass, Italian plant response rating ([11]; postemergence, 0-100 scale): 10 | Plant response rating, Ryegrass, Italian [11, 12]: 85 | Plant response rating, Ryegrass, Italian [11, 13]: 85 | Plant response rating, Ryegrass, Italian [11, 14]: 98 | Plant response rating, Ryegrass, Italian [11, 15]: 80 | Plant response rating, Ryegrass, Italian [11, 16]: 95 | Plant response rating, Ryegrass, Italian [11, 17]: 100 | Ryegrass, Italian plant response rating ([11]; Preemergence, scale 0 to 100): 30
